This note sets out measurements from patent publication US4489163A, “rCRF and analogs” (The Salk Institute for Biological Studies, priority 1983, dated 1984).

In assay [1] the test system is ACTH and β-endorphin-like (β-END-LI) secretion. Put plainly: ACTH and β-END-LI secretion in vivo after intravenous administration. Further details: species or system rats. Particulars: general procedure of Example III; in vitro or in vivo not stated. An excerpt:
The synthetic and the natural rCRF were examined for their effects on the secretion of ACTH and β-endorphin in vitro and the synthetic rCRF was also examined in vivo.

A short description of assay [2]: lowering of blood pressure in rats. It is filed as in vivo. As to conditions: for lowering of blood pressure: species not given, general procedure of Example III; for lowering of blood pressure compared with rCRF: relative to rCRF, species not stated.

Where a SMILES comes first, the peptide text is derived from it. [ ]: non-standard residue; d: D form. The star is where a group is joined. Nle = CCCC[C@H](N)C(=O)O; Bz = O=C(c1ccccc1)*

Consider `CCCC[C@H](NC(=O)[C@@H](NC(=O)[C@H](CC(C)C)NC(=O)[C@H](CC(=O)O)NC(=O)[C@H](CC(C)C)NC(=O)[C@H](CO)NC(=O)[C@@H](NC(=O)[C@@H]1CCCN1C(=O)[C@@H]1CCCN1C(=O)[C@H](CCC(=O)O)NC(=O)CNC(=O)c1ccccc1)[C@@H](C)CC)[C@@H](C)O)C(=O)N[C@@H](Cc1c[nH]cn1)C(=O)N[C@@H](CC(C)C)C(=O)N[C@@H](CC(C)C)C(=O)N[C@@H](CCCNC(=N)N)C(=O)N[C@@H](CCC(=O)O)C(=O)N[C@H](C(=O)N[C@@H](CC(C)C)C(=O)N[C@@H](CCC(=O)O)C(=O)N[C@@H](CCSC)C(=O)N[C@@H](C)C(=O)N[C@@H](CCCNC(=N)N)C(=O)N[C@@H](C)C(=O)N[C@@H](CCC(=O)O)C(=O)N[C@@H](CCC(N)=O)C(=O)N[C@@H](CC(C)C)C(=O)N[C@@H](C)C(=O)N[C@@H](CCC(N)=O)C(=O)N[C@@H](CCC(N)=O)C(=O)N[C@@H](C)C(=O)N[C@@H](Cc1c[nH]cn1)C(=O)N[C@@H](CO)C(=O)N[C@@H](CC(N)=O)C(=O)N[C@@H](CCCNC(=N)N)C(=O)N[C@@H](CCCCN)C(=O)N[C@@H](CC(C)C)C(=O)N[C@@H](CCSC)C(=O)N[C@@H](CCC(=O)O)C(=O)N[C@H](C(=O)N[C@H](C(N)=O)[C@@H](C)CC)[C@@H](C)CC)C(C)C` [XII] (Bz-GEPPISLDLT[Nle]HLLREVLEMARAEQLAQQAHSNRKLMEII-NH2), for which, in assay [1], the “stimulation of secretion of ACTH and β-END-LI” value (“stimulation” for short) was “stimulates the secretion of ACTH and β-END-LI”. Also, the “lowering of blood pressure” value in assay [2] was “very significant lowering of blood pressure”.
For `CC[C@H](C)[C@H](NC(=O)[C@@H](NC(=O)[C@H](CC(=O)O)NC(=O)[C@H](CCSC)NC(=O)[C@H](CC(C)C)NC(=O)[C@H](CC(C)C)NC(=O)[C@H](CCCNC(=N)N)NC(=O)[C@H](CC(N)=O)NC(=O)[C@H](CC(N)=O)NC(=O)[C@H](C)NC(=O)[C@H](C)NC(=O)[C@H](CCC(N)=O)NC(=O)[C@H](CCC(N)=O)NC(=O)[C@H](CCCCN)NC(=O)[C@H](CC(C)C)NC(=O)[C@H](CCCCN)NC(=O)[C@H](CCC(=O)O)NC(=O)[C@H](CCC(N)=O)NC(=O)[C@H](CCCCN)NC(=O)[C@H](CCC(=O)O)NC(=O)[C@@H](NC(=O)[C@H](CCC(=O)O)NC(=O)[C@@H](NC(=O)[C@H](CCSC)NC(=O)[C@H](CCCCN)NC(=O)[C@H](CCCNC(=N)N)NC(=O)[C@H](CC(C)C)NC(=O)[C@H](CC(C)C)NC(=O)[C@H](CCC(=O)O)NC(=O)[C@H](CC(C)C)NC(=O)[C@H](CO)NC(=O)[C@H](CC(C)C)NC(=O)[C@H](CC(=O)O)NC(=O)[C@@H](NC(=O)[C@H](CO)NC(=O)[C@@H](NC(=O)[C@@H]1CCCN1C(=O)[C@@H]1CCCN1C(=O)CNC(=O)[C@@H]1CCC(=O)N1)[C@@H](C)CC)[C@@H](C)CC)[C@@H](C)CC)[C@@H](C)CC)[C@@H](C)O)C(N)=O` [XVIII], in assay [1], the “stimulation” value was “stimulates the secretion of ACTH and β-END-LI”. Besides, the “lowering of blood pressure” value in assay [2] is “very significant lowering of blood pressure”.
`CC[C@H](C)[C@H](NC(=O)[C@@H](NC(=O)[C@H](CC(=O)O)NC(=O)[C@H](CC(C)C)NC(=O)[C@H](CC(C)C)NC(=O)[C@H](CC(C)C)NC(=O)[C@H](CCCNC(=N)N)NC(=O)[C@H](CC(N)=O)NC(=O)[C@H](CC(N)=O)NC(=O)[C@H](C)NC(=O)[C@H](C)NC(=O)[C@H](CCC(N)=O)NC(=O)[C@H](CCC(N)=O)NC(=O)[C@H](CCCCN)NC(=O)[C@H](CCC(=O)O)NC(=O)[C@H](CCCCN)NC(=O)[C@H](CCC(=O)O)NC(=O)[C@H](CCC(N)=O)NC(=O)[C@H](CCCCN)NC(=O)[C@H](CCCNC(=N)N)NC(=O)[C@H](C)NC(=O)[C@H](CCC(=O)O)NC(=O)[C@@H](NC(=O)[C@H](CCSC)NC(=O)[C@H](CCCCN)NC(=O)[C@H](CCCNC(=N)N)NC(=O)[C@H](CC(C)C)NC(=O)[C@H](CC(C)C)NC(=O)[C@H](CCC(=O)O)NC(=O)[C@H](CC(C)C)NC(=O)[C@H](CO)NC(=O)[C@H](CC(C)C)NC(=O)[C@H](CC(=O)O)NC(=O)[C@@H](NC(=O)[C@H](CO)NC(=O)[C@@H](NC(=O)[C@@H]1CCCN1C(=O)[C@@H]1CCCN1C(=O)CNC(=O)[C@@H]1CCC(=O)N1)[C@@H](C)CC)[C@@H](C)CC)[C@@H](C)CC)[C@@H](C)CC)C(N)=O` [XVII]: in assay [1], the “stimulation” value was “stimulates the secretion of ACTH and β-END-LI”. The “lowering of blood pressure” value in assay [2] is “very significant lowering of blood pressure”.
As to “Ac-PPISLDLTFHLLREVLEMARAEQLAQQAHSNRKLMDII-NH2 [XIII]”, in assay [1], the “stimulation” value was “stimulates the secretion of ACTH and β-END-LI”. Further, in assay [2], the “lowering of blood pressure compared with rCRF” value (“lowering … compared with rCRF” below) was “to a greater extent than rCRF” and the “lowering of blood pressure” value is listed as “very significant lowering of blood pressure”.
On to “H-PPISIDLSLELLRKMIEIAKQEKEKQQAANNRLLMDTI-NH2 [XVI]”, for which the “stimulation” value in assay [1] was “stimulates the secretion of ACTH and β-END-LI”. Moreover, the “lowering of blood pressure” value in assay [2] is reported as “very significant lowering of blood pressure”.
“H-SEEPPISLDLTFELLREVLEVARAEQLAQQAHSNRKLMEII-NH2 [IX]”: the “stimulation” value in assay [1] is “stimulates the secretion of ACTH and β-END-LI”. In assay [2], the “lowering … compared with rCRF” value is “to a great extent than rCRF” and the “lowering of blood pressure” value is “very significant lowering of blood pressure”.
As for “H-SEEPPISLDLTFHLLREVAEMTRAEQLAQQAHSNRKLMEII-NH2 [VII]”, the “stimulation” value in assay [1] was “stimulates the secretion of ACTH and β-END-LI”. In assay [2], the “lowering of blood pressure” value is “very significant lowering of blood pressure”.
With “H-SEEPPISLDLTFHLLREVLEAARAEQLAQQAHSNRKLLEI[Nle]-NH2 [XI]”, the “stimulation” value in assay [1] is “stimulates the secretion of ACTH and β-END-LI”. The “lowering of blood pressure” value in assay [2] is listed as “very significant lowering of blood pressure”.
As to “H-SEEPPISLDLTFHLLREVLE[Nle]ARAEQLAQQAYSNRKLMEII-NH2 [XV]”, the “stimulation” value in assay [1] was “stimulates the secretion of ACTH and β-END-LI”. Besides, in assay [2], the “lowering … compared with rCRF” value is “to a greater extent than rCRF” and the “lowering of blood pressure” value is reported as “very significant lowering of blood pressure”.
For the compound “H-SEEPPIS[Nle]DLSFHLLREVLEMARAEQLAQQAHLNRKLMEII-NH2 [X]”, in assay [1], the “stimulation” value was “stimulates the secretion of ACTH and β-END-LI”. In assay [2], the “lowering of blood pressure” value is recorded as “very significant lowering of blood pressure”.
With “H-SQEPPISLDLTFHLLREVLEMAKAEQLAQQAHSNRKLLEII-NH2 [XIV]”, the “stimulation” value in assay [1] is “stimulates the secretion of ACTH and β-END-LI”. Also, in assay [2], the “lowering of blood pressure” value is reported as “very significant lowering of blood pressure”.
